# In patent US20260242768A1, “ACETYL-COENZYME A CARBOXYLASE MUTANTS” (CIBUS US LLC, priority 2023, published 2026):
# Columns and labels:
# [1] = test system: rice (Oryza sativa) plastidal ACCase; assay: Clethodim tolerance of rice ACCase mutations, yeast complementation assay (Examples 1-3); assay type: cell-based; conditions: for clethodim tolerance: ACCase mutation tested with the herbicide clethodim; for clethodim tolerance of combined mutations compared with single mutation(s) or parent mutant: double/triple mutants vs single mutations; for effect on clethodim tolerance of the single D2078G mutation: mutation added to D2078G
# From the text: Joachimiak M. et al Proc Natl Acad Sci U.S.A. 1997 Sep. 2; 94 (18): 9990-5 and WO/2013/074524 and WO/2013/074524 each describe methods to complement a yeast (Saccharomyces cerevisiae) strain lacking the native acc1 gene with either a wt or mutated form of a chimeric plastidal ACCase gene from a plant such as rice (Oryza sativa). Methods to introduce one or more mutations listed herein into the chimeric ACCase gene and subsequently complement the acc1 lacking yeast strain are well known by an individual skilled in the art. In the art assays are known for measuring tolerance of a mutated plant ACCase gene versus a herbicide that is a member of the aryloxyphenoxypropanoate, cyclohexanedione, and/or phenylpyrazoline families of herbicides such as clethodim, sethoxydim, fluazifop, haloxyfop, quizalofop, and pinoxaden (Joachimiak M. et al Proc Natl Acad Sci U.S.A. 1997 Sep. 2; 94 (18): 9990-5 and WO/2013/074524).
# A library of random mutations in the rice (Oryza sativa) plastidal ACCase gene was generated and screened for clethodim tolerant clones using a yeast complementation assay.
# O. sativa ACCase = assay: Growth of Saccharomyces cerevisiae pseudodiploid acc1Δ strains carrying wild-type or mutant OsACCase plasmids, streaked onto plates with increasing concentrations of clethodim (Examples 5, 7, 10; Tables 8, 12); assay type: cell-based, Oryza sativa; parameters: key to growth, 0 mM clethodim / growth, 0.025 mM clethodim / growth, 0.1 mM clethodim / growth, 0.25 mM clethodim / growth, 0.5 mM clethodim / growth, 1 mM clethodim: ++ = Strong growth; + = Poor growth; − = No growth; key to relative growth phenotype, 0.5 mM clethodim / relative growth phenotype, 1 mM clethodim / relative growth phenotype, 2 mM clethodim / relative growth phenotype, highGal / relative growth phenotype, lowGal / relative growth phenotype, 0.05 mM clethodim / relative growth phenotype, 0.1 mM clethodim / relative growth phenotype, 0.25 mM clethodim: +++ high growth; ++ moderate growth; + low to negligible growth; (−) some cell debris, no growth; − no growth or cell debris; conditions: for relative growth phenotype, 0.05 mM clethodim: plate with 0.05 mM clethodim; for relative growth phenotype, 2 mM clethodim: plate with 2 mM clethodim; for relative growth phenotype, highGal / relative growth phenotype, lowGal: yeast acc1Δ strain with OsACCase plasmid, no clethodim; for relative growth phenotype, highGal: high galactose plate; for relative growth phenotype, lowGal: low galactose plate
# From the text: Mutations at position N2097S and V2098A were combined to determine if point mutations at both positions gave increased resistance compared to either single point mutation. Each of these respective mutations (N2097S, V2098A and N2097S/V2098A) were generated by standard methods and introduced into a Saccharomyces cerevisiae pseudodiploid acc1Δ strain with a plasmid containing wild-type O. sativa ACCase gene. Once each of these mutations were introduced by recombination mediated mutagenesis, the OsACCase wild-type plasmid was removed, and mutation strains were confirmed by sequencing. The three strains, along with a series of controls including a WT strain (negative control), an I1781L mutant strain, and a D2078G mutant strain (positive control), were streaked onto plates with increasing concentrations of clethodim. […] These observations argue that N2097S is an enhancer of V2098A tolerance.
# Edits at position S1784N and A1785G were combined to determine if point mutations at both of these two positions gave increased resistance compared to either single point mutation. Each of these respective mutations (S1784N, A1785G and S1784N/A1785G) were generated by standard methods and introduced into a Saccharomyces cerevisiae pseudodiploid acc1Δ strain with a plasmid containing wild-type O. sativa ACCase gene. Once each of these mutations were introduced by recombination mediated mutagenesis, the OsACCase wild-type plasmid was removed, and mutation strains were confirmed by sequencing. The three strains, along with a series of controls including a WT strain (negative control), an I1781L mutant strain, a D2078G mutant strain (positive control), and a V2075L mutant strain were streaked onto plates with increasing concentrations of clethodim.
# Each of these respective mutations (D2078G, P2083T, D2078G/P2083T) were generated by standard methods and introduced into a Saccharomyces cerevisiae pseudodiploid acc14 strain with a plasmid containing the wild-type O. sativa ACCase gene. Once plasmids bearing each of these mutations, introduced using recombination-mediated mutagenesis, the OsACCase wild-type plasmid was removed, and strains bearing each mutant plasmid were confirmed by sequencing. The three strains, along with a series of controls including a wild-type strain (negative control), an I1781L mutant strain (medium control), and a pre-existing D2078G mutant strain (positive control) were streaked onto plates with increasing concentrations of clethodim.
# [2] = plate with 0.1 mM clethodim, galactose 0.01%
# [3] = plate with 0.25 mM clethodim, galactose 0.01%
# [4] = plate with 0.5 mM clethodim, galactose 0.01%
# [5] = plate with 1 mM clethodim, galactose 0.01%
# [6] = plates with increasing clethodim, 0.01% galactose
substance,measurement,setting,value
"A1785G: mutated ACCase, numbering per SEQ ID NO: 2",clethodim tolerance,[1],no detectable clethodim tolerance
same,"relative growth phenotype, 0.05 mM clethodim",O. sativa ACCase; galactose 0.01%,(−)
same,"relative growth phenotype, 0.1 mM clethodim",O. sativa ACCase; [2],(−)
same,"relative growth phenotype, 0.25 mM clethodim",O. sativa ACCase; [3],−
same,"relative growth phenotype, 0.5 mM clethodim",O. sativa ACCase; [4],−
same,"relative growth phenotype, 1 mM clethodim",O. sativa ACCase; [5],−
same,"relative growth phenotype, 2 mM clethodim",O. sativa ACCase; galactose 0.01%,−
same,"relative growth phenotype, highGal",O. sativa ACCase,+++
same,"relative growth phenotype, lowGal",O. sativa ACCase,+++
"C2088M: mutated ACCase, numbering per SEQ ID NO: 2",clethodim tolerance,[1],produces measurable tolerance
"D1681E: mutated ACCase, numbering per SEQ ID NO: 2",clethodim tolerance,[1],measurable clethodim tolerance
"D1681G: mutated ACCase, numbering per SEQ ID NO: 2",clethodim tolerance,[1],measurable clethodim tolerance
D2078G/N2097S: double mutant ACCase,clethodim tolerance of combined mutations compared with single mutation(s) or parent mutant,[1],"either less, or no more, tolerant than the single D2078G, V2075L and V2098A mutations"
L1543F-D1681E: double mutant ACCase,clethodim tolerance of combined mutations compared with single mutation(s) or parent mutant,[1],increased clethodim tolerance compared to any one mutation alone
L1543F-D1681G: double mutant ACCase,clethodim tolerance of combined mutations compared with single mutation(s) or parent mutant,[1],increased clethodim tolerance compared to any one mutation alone
"L1543F: mutated ACCase, numbering per SEQ ID NO: 2",clethodim tolerance,[1],measurable clethodim tolerance
L1543V-D1681E: double mutant ACCase,clethodim tolerance of combined mutations compared with single mutation(s) or parent mutant,[1],increased clethodim tolerance compared to any one mutation alone
L1543V-D1681G: double mutant ACCase,clethodim tolerance of combined mutations compared with single mutation(s) or parent mutant,[1],increased clethodim tolerance compared to any one mutation alone
"L1543V: mutated ACCase, numbering per SEQ ID NO: 2",clethodim tolerance,[1],measurable clethodim tolerance
"L1818H: mutated ACCase, numbering per SEQ ID NO: 2",clethodim tolerance,[1],measurable clethodim tolerance
"L1818I: mutated ACCase, numbering per SEQ ID NO: 2",clethodim tolerance,[1],measurable clethodim tolerance
M1974T-D2078G: double mutant ACCase,clethodim tolerance of combined mutations compared with single mutation(s) or parent mutant,[1],tolerance that is similar to the corresponding original triple mutants
"M1974T: mutated ACCase, numbering per SEQ ID NO: 2",clethodim tolerance,[1],neither R1672I nor M1974T alone provide measurable tolerance
same,effect on clethodim tolerance of the single D2078G mutation,[1],increase tolerance of the single D2078G mutation
"M1975T: mutated ACCase, numbering per SEQ ID NO: 2",effect on clethodim tolerance of the single D2078G mutation,[1],neither M1975T nor M2257I provide detectable clethodim tolerance increase to the single D2078G mutation
N2097S/V2098A: double mutant ACCase,tolerance/resistance of double mutant compared with single mutation(s),O. sativa ACCase; [6],notably increased compared to the V2098A change alone
"P2083T: mutated ACCase, numbering per SEQ ID NO: 2","growth, 0 mM clethodim","O. sativa ACCase; Table 12, plate with 0 mM clethodim, galactose 0.01%",++
same,"growth, 0.025 mM clethodim","O. sativa ACCase; Table 12, plate with 0.025 mM clethodim, galactose 0.01%",−
same,"growth, 0.1 mM clethodim","O. sativa ACCase; Table 12, plate with 0.1 mM clethodim, galactose 0.01%",−
same,"growth, 0.25 mM clethodim","O. sativa ACCase; Table 12, plate with 0.25 mM clethodim, galactose 0.01%",−
same,"growth, 0.5 mM clethodim","O. sativa ACCase; Table 12, plate with 0.5 mM clethodim, galactose 0.01%",−
same,"growth, 1 mM clethodim","O. sativa ACCase; Table 12, plate with 1 mM clethodim, galactose 0.01%",−
same,growth on clethodim plates (in words),O. sativa ACCase; [6],unable to grow on all concentrations of clethodim tested
R1672I-D2078G: double mutant ACCase,clethodim tolerance of combined mutations compared with single mutation(s) or parent mutant,[1],tolerance that is similar to the corresponding original triple mutants
R1672I/M1975T/D2078G: triple mutant ACCase clone,clethodim tolerance of combined mutations compared with single mutation(s) or parent mutant,[1],increased clethodim tolerance compared to the single D2078G mutation
"R1672I: mutated ACCase, numbering per SEQ ID NO: 2",clethodim tolerance,[1],neither R1672I nor M1974T alone provide measurable tolerance
same,effect on clethodim tolerance of the single D2078G mutation,[1],increase tolerance of the single D2078G mutation
"S1784G: mutated ACCase, numbering per SEQ ID NO: 2",clethodim tolerance,[1],measurable clethodim tolerance
S1784N plus L1818H: double mutant ACCase,clethodim tolerance of combined mutations compared with single mutation(s) or parent mutant,[1],improves tolerance in comparison to either single mutation
S1784N/A1785G: double mutant ACCase,clethodim concentrations on which the strain grew,"O. sativa ACCase; Example 7, plates with increasing clethodim, 0.01% galactose",up to 1 mM
same,"relative growth phenotype, 0.05 mM clethodim",O. sativa ACCase; galactose 0.01%,+++
same,"relative growth phenotype, 0.1 mM clethodim",O. sativa ACCase; [2],+++
same,"relative growth phenotype, 0.25 mM clethodim",O. sativa ACCase; [3],+++
same,"relative growth phenotype, 0.5 mM clethodim",O. sativa ACCase; [4],+++
same,"relative growth phenotype, 1 mM clethodim",O. sativa ACCase; [5],+
same,"relative growth phenotype, 2 mM clethodim",O. sativa ACCase; galactose 0.01%,(−)
same,tolerance/resistance of double mutant compared with single mutation(s),O. sativa ACCase; [6],superior in terms of resistance to either individual mutation
same,"relative growth phenotype, highGal",O. sativa ACCase,+++
same,"relative growth phenotype, lowGal",O. sativa ACCase,+++
V2075L/N2097D: double mutant ACCase,clethodim tolerance of combined mutations compared with single mutation(s) or parent mutant,[1],"either less, or no more, tolerant than the single D2078G, V2075L and V2098A mutations"
V2098A/N2097D: double mutant ACCase,clethodim tolerance of combined mutations compared with single mutation(s) or parent mutant,[1],"either less, or no more, tolerant than the single D2078G, V2075L and V2098A mutations"
